{"source": "ChEMBL document CHEMBL4118072", "about": "“2-Substituted-thio-N-(4-substituted-thiazol/1H-imidazol-2-yl)acetamides as BACE1 inhibitors: Synthesis, biological evaluation and docking studies” (Eur J Med Chem, 2017)", "key": {"Beta-secretase 1 [1]": {"target": "T1, Beta-secretase 1 (Homo sapiens, UniProt P56817)", "T1 sequence (P56817 whole entry)": "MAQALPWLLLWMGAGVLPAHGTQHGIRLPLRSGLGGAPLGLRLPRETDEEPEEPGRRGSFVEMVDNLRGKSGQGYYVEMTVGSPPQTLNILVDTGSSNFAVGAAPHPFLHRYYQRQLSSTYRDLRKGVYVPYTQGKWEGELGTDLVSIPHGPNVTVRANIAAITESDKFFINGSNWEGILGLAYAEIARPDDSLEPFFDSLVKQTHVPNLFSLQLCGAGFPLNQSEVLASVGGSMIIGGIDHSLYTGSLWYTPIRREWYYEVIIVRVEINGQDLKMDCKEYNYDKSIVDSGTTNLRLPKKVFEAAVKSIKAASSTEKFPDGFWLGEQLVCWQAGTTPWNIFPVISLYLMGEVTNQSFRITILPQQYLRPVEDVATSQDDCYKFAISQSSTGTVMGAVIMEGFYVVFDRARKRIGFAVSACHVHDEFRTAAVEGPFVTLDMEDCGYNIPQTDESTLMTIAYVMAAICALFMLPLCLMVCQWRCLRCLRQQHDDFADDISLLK", "test": "Inhibition of BACE1 (unknown origin) at 10 uM using Rh-EVNLDAEFK-Quencher as substrate after 60 mins by FRET assay relative to control"}, "Beta-secretase 1 [2]": {"target": "T1, Beta-secretase 1", "test": "Inhibition of BACE1 (unknown origin) at 50 uM using Rh-EVNLDAEFK-Quencher as substrate after 60 mins by FRET assay relative to control"}, "[3]": {"test": "Cytotoxicity against HEK293 cells assessed as decrease in cell viability after 72 hrs by CellTiter Glo luminescent assay", "format": "cell-based", "settings": "human"}, "Beta-secretase 1 [4]": {"target": "T1, Beta-secretase 1", "test": "Inhibition of BACE1 (unknown origin) using Rh-EVNLDAEFK-Quencher as substrate after 60 mins by FRET assay"}, "Beta-secretase 1 [5]": {"target": "T1, Beta-secretase 1", "test": "Binding affinity to BACE1 (unknown origin) by SPR method"}, "in vitro": {"test": "in vitro", "settings": "PAMPA", "description": "Permeability of the compound at 25 ug/ml after 18 hrs by PAMPA"}, "Beta-secretase 1 [6]": {"target": "T1, Beta-secretase 1", "test": "Inhibition of BACE1 (unknown origin) at 1 uM using Rh-EVNLDAEFK-Quencher as substrate after 60 mins by FRET assay"}}}
{"smiles": "COc1cccc(-c2nc(SCC(=O)Nc3nc(-c4cc(Cl)c(NC(C)=O)c(Cl)c4)cs3)[nH]c(=O)c2C#N)c1", "values": [{"measurement": "inhibition", "setting": "Beta-secretase 1 [1]", "result": 0.3, "unit": "%"}, {"measurement": "inhibition", "setting": "Beta-secretase 1 [2]", "result": 1.4, "unit": "%"}]}
{"smiles": "CN[C@@H]1C[C@H]2O[C@@](C)([C@@H]1OC)n1c3ccccc3c3c4c(c5c6ccccc6n2c5c31)C(=O)NC4", "note": "[STAUROSPORINE]", "values": [{"measurement": "CC50 at 72 h", "setting": "[3]", "result": 0.00354, "unit": "µM"}]}
{"smiles": "N#Cc1c(-c2cccc(C(F)(F)F)c2)nc(SCC(=O)Nc2nc(-c3cc(Cl)c(N)c(Cl)c3)cs2)[nH]c1=O", "values": [{"measurement": "inhibition", "setting": "Beta-secretase 1 [1]", "result": 13, "unit": "%"}, {"measurement": "inhibition", "setting": "Beta-secretase 1 [2]", "result": 86.1, "unit": "%"}, {"measurement": "IC50", "setting": "Beta-secretase 1 [4]", "result": 13.4, "unit": "µM"}, {"measurement": "Kd", "setting": "Beta-secretase 1 [5]", "result": 1.33, "unit": "µM"}, {"measurement": "CC50 at 72 h", "setting": "[3]", "result": 47.7, "unit": "µM"}, {"measurement": "Papp at 18 h, 25 ug/ml", "setting": "in vitro", "result": 0.88, "unit": "×10⁻⁶ cm/s"}]}
{"smiles": "COc1cccc(-c2nc(SCC(=O)Nc3nc(-c4cccc(Br)c4)cs3)[nH]c(=O)c2C#N)c1", "values": [{"measurement": "inhibition", "setting": "Beta-secretase 1 [1]", "result": 14.3, "unit": "%"}, {"measurement": "inhibition", "setting": "Beta-secretase 1 [2]", "result": 90.4, "unit": "%"}, {"measurement": "IC50", "setting": "Beta-secretase 1 [4]", "result": 17.5, "unit": "µM"}, {"measurement": "Kd", "setting": "Beta-secretase 1 [5]", "result": 1.74, "unit": "µM"}, {"measurement": "CC50 at 72 h", "setting": "[3]", "result": "> 50", "unit": "µM"}, {"measurement": "Papp at 18 h, 25 ug/ml", "setting": "in vitro", "result": 0.94, "unit": "×10⁻⁶ cm/s"}]}
{"smiles": "N#Cc1c(-c2cccc(OC(F)(F)F)c2)nc(SCC(=O)Nc2nc(-c3cc(Cl)c(N)c(Cl)c3)cs2)[nH]c1=O", "values": [{"measurement": "inhibition", "setting": "Beta-secretase 1 [1]", "result": 6.1, "unit": "%"}, {"measurement": "inhibition", "setting": "Beta-secretase 1 [2]", "result": 39.6, "unit": "%"}]}
{"smiles": "Clc1cccc(Cl)c1N=C1NCCN1", "note": "[CLONIDINE]", "values": [{"measurement": "Papp at 18 h, 25 ug/ml", "setting": "in vitro", "result": 5.9, "unit": "×10⁻⁶ cm/s"}]}
{"smiles": "COc1cccc(-c2nc(SCC(=O)Nc3nc(-c4cc(Cl)c(N)c(Cl)c4)c[nH]3)[nH]c(=O)c2C#N)c1", "values": [{"measurement": "inhibition", "setting": "Beta-secretase 1 [1]", "result": 87.7, "unit": "%"}, {"measurement": "IC50", "setting": "Beta-secretase 1 [4]", "result": 3.2, "unit": "µM"}, {"measurement": "inhibition", "setting": "Beta-secretase 1 [6]", "result": 26.4, "unit": "%"}, {"measurement": "Kd", "setting": "Beta-secretase 1 [5]", "result": 0.169, "unit": "µM"}, {"measurement": "CC50 at 72 h", "setting": "[3]", "result": "> 50", "unit": "µM"}, {"measurement": "Papp at 18 h, 25 ug/ml", "setting": "in vitro", "result": 0.34, "unit": "×10⁻⁶ cm/s"}]}
{"smiles": "COc1cccc(-c2nc(SCC(=O)Nc3nc(-c4cc(Cl)c(N)c(Cl)c4)cs3)[nH]c(=O)c2C#N)c1", "values": [{"measurement": "inhibition", "setting": "Beta-secretase 1 [1]", "result": 58.9, "unit": "%"}, {"measurement": "inhibition", "setting": "Beta-secretase 1 [2]", "result": 91.8, "unit": "%"}, {"measurement": "IC50", "setting": "Beta-secretase 1 [4]", "result": 7.7, "unit": "µM"}, {"measurement": "Kd", "setting": "Beta-secretase 1 [5]", "result": 0.861, "unit": "µM"}, {"measurement": "CC50 at 72 h", "setting": "[3]", "result": "> 50", "unit": "µM"}, {"measurement": "Papp at 18 h, 25 ug/ml", "setting": "in vitro", "result": 0.11, "unit": "×10⁻⁶ cm/s"}]}
{"smiles": "CCOc1cccc(-c2nc(SCC(=O)Nc3nc(-c4cc(Cl)c(N)c(Cl)c4)cs3)[nH]c(=O)c2C#N)c1", "values": [{"measurement": "inhibition", "setting": "Beta-secretase 1 [1]", "result": 24.5, "unit": "%"}, {"measurement": "inhibition", "setting": "Beta-secretase 1 [2]", "result": 79.9, "unit": "%"}, {"measurement": "IC50", "setting": "Beta-secretase 1 [4]", "result": 13.5, "unit": "µM"}, {"measurement": "CC50 at 72 h", "setting": "[3]", "result": "> 50", "unit": "µM"}, {"measurement": "Papp at 18 h, 25 ug/ml", "setting": "in vitro", "result": 0.07, "unit": "×10⁻⁶ cm/s"}]}
{"smiles": "CCOc1cccc(-c2nc(SCC(=O)Nc3nc(-c4cc(Cl)c(NC(C)=O)c(Cl)c4)cs3)[nH]c(=O)c2C#N)c1", "values": [{"measurement": "inhibition", "setting": "Beta-secretase 1 [1]", "result": 2.5, "unit": "%"}, {"measurement": "inhibition", "setting": "Beta-secretase 1 [2]", "result": 4.7, "unit": "%"}]}
